Laboratory results reported in ChEMBL document CHEMBL4020763, “N-(1H-Pyrazol-3-yl)quinazolin-4-amines as a novel class of casein kinase 1δ/ε inhibitors: Synthesis, biological evaluation and molecular modeling studies” (Bioorg Med Chem Lett, 2017).

What was measured:
MCF7 [1] = test: Cytotoxicity against human MCF7 cells by MTT assay; type: functional, cell-based
BT-20 [2] = test: Cytotoxicity against human BT20 cells by MTT assay; type: functional, cell-based
A549 [3] = test: Cytotoxicity against human A549 cells by MTT assay; type: functional, cell-based
MCF7 [4] = test: Growth inhibition of human MCF7 cells at 100 uM by MTT assay relative to control; type: functional; conditions: read-out: GI
HCT-15 [5] = test: Growth inhibition of human HCT15 cells at 100 uM by MTT assay relative to control; type: functional; conditions: read-out: GI
[6] = target: Dual specificity protein kinase CLK1 (Mus musculus, UniProt P22518); test: Inhibition of recombinant mouse GST-fused CLK1 expressed in Escherichia coli using RS peptide as substrate after 30 mins in presence of ATP by scintillation counting method
[7] = Growth inhibition of HEK293 cells at 100 uM by MTT assay relative to control; type: cell-based; conditions: human, read-out: GI
MDA-MB-468 [8] = test: Growth inhibition of human MDA-MB-468 cells at 100 uM by MTT assay relative to control; type: functional; conditions: read-out: GI
[9] = target: Glycogen synthase kinase-3 (Sus scrofa) (UniProt B2LUN4+I6LNT8); test: Inhibition of porcine brain GSK-3 alpha/beta at 10 uM using YRRAAVPPSPSLSRHSSPHQpSEDEEE as substrate after 30 mins in presence of ATP by scintillation counting method relative to control
MIA PaCa-2 [10] = test: Growth inhibition of human MIAPaCa2 cells at 100 uM by MTT assay relative to control; type: functional; conditions: read-out: GI
HCT-15 [11] = test: Cytotoxicity against human HCT15 cells by MTT assay; type: functional, cell-based
MIA PaCa-2 [12] = test: Cytotoxicity against human MIAPaCa2 cells by MTT assay; type: functional, cell-based
[13] = target: Dual specificity protein kinase CLK1 (Mus musculus) (UniProt P22518); test: Inhibition of recombinant mouse GST-fused CLK1 expressed in Escherichia coli at 10 uM using RS peptide as substrate after 30 mins in presence of ATP by scintillation counting method relative to control
ZR-75-1 [14] = test: Growth inhibition of human ZR-75-1 cells at 100 uM by MTT assay relative to control; type: functional; conditions: read-out: GI
Sus scrofa = species on record: Sus scrofa; test: Inhibition of porcine brain CK1-delta/epsilon at 10 uM using CSK peptide as substrate after 30 mins in presence of ATP by scintillation counting method relative to control
DU-145 = test: Growth inhibition of human DU145 cells at 100 uM by MTT assay relative to control; type: functional; conditions: read-out: GI
MDA-MB-468 [15] = test: Cytotoxicity against human MDA-MB-468 cells by MTT assay; type: functional, cell-based
Asteroidea = test: Inhibition of M-phase starfish oocytes CDK1/cyclin B at 10 uM using histone H1 as substrate after 30 mins in presence of ATP by scintillation counting method relative to control
[16] = target: Dual specificity tyrosine-phosphorylation-regulated kinase 1A (Homo sapiens) (UniProt Q13627); test: Inhibition of recombinant full length human GST-fused DYRK1A expressed in Escherichia coli at 10 uM using RS peptide as substrate after 30 mins in presence of ATP by scintillation counting method relative to control
[17] = target: Glycogen synthase kinase-3 (Sus scrofa, UniProt B2LUN4+I6LNT8); test: Inhibition of porcine brain GSK-3 alpha/beta using YRRAAVPPSPSLSRHSSPHQpSEDEEE as substrate after 30 mins in presence of ATP by scintillation counting method
ZR-75-1 [18] = test: Cytotoxicity against human ZR-75-1 cells by MTT assay; type: functional, cell-based
[19] = target: CDK9/cyclin T1 (Homo sapiens) (UniProt O60563+P50750); test: Inhibition of recombinant human CDK9/cyclin T expressed in insect cells at 10 uM using YSPTSPSYSPTSPSYSPTSPSKKKK as substrate after 30 mins in presence of ATP by scintillation counting method relative to control
ZR-75-30 [20] = test: Growth inhibition of human ZR-7530 cells at 100 uM by MTT assay relative to control; type: functional; conditions: read-out: GI
A549 [21] = test: Growth inhibition of human A549 cells at 100 uM by MTT assay relative to control; type: functional; conditions: read-out: GI
HEK293 = test: Cytotoxicity against HEK293 cells by MTT assay; type: cell-based; conditions: Homo sapiens
ZR-75-30 [22] = test: Cytotoxicity against human ZR-7530 cells by MTT assay; type: functional, cell-based
[23] = target: CDK2/Cyclin A2 (Homo sapiens) (UniProt P24941+P20248); test: Inhibition of recombinant human CDK2/cyclin A at 10 uM using histone H1 as substrate after 30 mins in presence of ATP by scintillation counting method relative to control; type: protein-complex assay
PANC-1 [24] = test: Cytotoxicity against human PANC1 cells by MTT assay; type: functional, cell-based
CDK2/Cyclin A2 = CDK2/Cyclin A2 (Homo sapiens, UniProt P24941); test: Inhibition of recombinant human CDK2/cyclin A using histone H1 as substrate after 30 mins in presence of ATP by scintillation counting method; type: protein-complex assay
[25] = Inhibition of M-phase starfish oocytes CDK1/cyclin B using histone H1 as substrate after 30 mins in presence of ATP by scintillation counting method; design: species or system Asteroidea
BT-20 [26] = test: Growth inhibition of human BT20 cells at 100 uM by MTT assay relative to control; type: functional; conditions: read-out: GI
MDA-MB-231 [27] = test: Cytotoxicity against human MDA-MB-231 cells by MTT assay; type: functional, cell-based
PANC-1 [28] = test: Growth inhibition of human PANC1 cells at 100 uM by MTT assay relative to control; type: functional; conditions: read-out: GI
[29] = Inhibition of porcine brain CK1-delta/epsilon using CSK peptide as substrate after 30 mins in presence of ATP by scintillation counting method; design: species or system Sus scrofa
MDA-MB-231 [30] = test: Growth inhibition of human MDA-MB-231 cells at 100 uM by MTT assay relative to control; type: functional; conditions: read-out: GI
[31] = target: Cyclin-dependent kinase 5/CDK5 activator 1 (Homo sapiens) (UniProt Q00535+Q15078); test: Inhibition of recombinant human CDK5/p25 expressed in Escherichia coli at 10 uM using histone H1 as substrate after 30 mins in presence of ATP by scintillation counting method relative to control
Cyclin-dependent kinase 5/CDK5 activator 1 (Homo sapiens), sequence (Q00535 whole entry): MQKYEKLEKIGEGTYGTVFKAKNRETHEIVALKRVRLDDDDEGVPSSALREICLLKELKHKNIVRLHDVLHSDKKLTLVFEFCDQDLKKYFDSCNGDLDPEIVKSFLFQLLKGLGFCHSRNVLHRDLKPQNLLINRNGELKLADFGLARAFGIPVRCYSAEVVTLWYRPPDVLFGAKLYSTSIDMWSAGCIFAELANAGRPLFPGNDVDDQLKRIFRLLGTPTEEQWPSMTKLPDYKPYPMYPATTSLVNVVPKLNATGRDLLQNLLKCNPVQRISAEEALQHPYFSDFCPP
Cyclin-dependent kinase 5/CDK5 activator 1 (Homo sapiens), sequence (Q15078 99-307 partner limits assumed): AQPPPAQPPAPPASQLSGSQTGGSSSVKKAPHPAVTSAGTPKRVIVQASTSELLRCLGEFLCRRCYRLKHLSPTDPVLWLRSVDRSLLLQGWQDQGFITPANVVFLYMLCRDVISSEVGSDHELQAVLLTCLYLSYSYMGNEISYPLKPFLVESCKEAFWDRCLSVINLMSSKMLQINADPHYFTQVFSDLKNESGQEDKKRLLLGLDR

Dual specificity protein kinase CLK1, sequence (P22518 whole entry, the tested form may be a part): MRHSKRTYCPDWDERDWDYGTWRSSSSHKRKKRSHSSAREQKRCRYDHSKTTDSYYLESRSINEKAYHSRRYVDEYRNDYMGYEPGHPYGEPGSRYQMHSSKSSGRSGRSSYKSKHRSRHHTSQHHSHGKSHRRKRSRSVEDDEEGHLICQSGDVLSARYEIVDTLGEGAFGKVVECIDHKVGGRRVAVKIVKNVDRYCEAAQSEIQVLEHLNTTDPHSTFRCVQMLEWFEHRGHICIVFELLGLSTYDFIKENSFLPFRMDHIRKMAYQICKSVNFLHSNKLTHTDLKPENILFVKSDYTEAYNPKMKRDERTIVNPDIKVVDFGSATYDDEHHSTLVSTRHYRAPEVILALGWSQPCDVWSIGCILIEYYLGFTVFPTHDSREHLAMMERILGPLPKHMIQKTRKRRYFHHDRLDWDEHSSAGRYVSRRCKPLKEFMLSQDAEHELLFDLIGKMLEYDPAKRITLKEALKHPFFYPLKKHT
Dual specificity protein kinase CLK1 (Mus musculus), sequence (P22518 whole entry, looked up, the tested form may be a part): as the sequence (P22518 whole entry, the tested form may be a part) above

SMILES | IC50 (MCF7 [1]) [µM] | IC50 (BT-20 [2]) [µM] | IC50 (A549 [3]) [µM] | inhibition of growth at 100 µM (MCF7 [4]) [%] | inhibition of growth at 100 µM (HCT-15 [5]) [%] | IC50 [6] [µM] | inhibition at 100 µM [7] [%] | inhibition of growth at 100 µM (MDA-MB-468 [8]) [%] | inhibition [9] [%] | inhibition of growth at 100 µM (MIA PaCa-2 [10]) [%] | IC50 (HCT-15 [11]) [µM] | IC50 (MIA PaCa-2 [12]) [µM] | inhibition [13] [%] | inhibition of growth at 100 µM (ZR-75-1 [14]) [%] | inhibition (Sus scrofa) [%] | inhibition of growth at 100 µM (DU-145) [%] | IC50 (MDA-MB-468 [15]) [µM] | inhibition (Asteroidea) [%] | inhibition [16] [%] | IC50 [17] [µM] | other results
COc1cc2ncnc(Nc3cc(O)[nH]n3)c2cc1OC | > 100 | > 100 | 74.9 | > 50 | > 50 | > 10 | > 50 | > 50 | > 50 | > 50 | > 100 | > 100 | > 50 | > 50 | > 50 | > 50 | 86.7 | > 50 | > 50 | > 10 | IC50 (ZR-75-1 [18]): > 100 µM; inhibition [19]: > 50%; inhibition of growth at 100 µM (ZR-75-30 [20]): > 50%; inhibition of growth at 100 µM (A549 [21]): > 50%; IC50 (HEK293): 69.5 µM; IC50 (ZR-75-30 [22]): > 100 µM; inhibition [23]: > 50%; IC50 (PANC-1 [24]): > 100 µM; IC50 (CDK2/Cyclin A2): > 10 µM; IC50 [25]: > 10 µM; inhibition of growth at 100 µM (BT-20 [26]): > 50%; IC50 (MDA-MB-231 [27]): > 100 µM; inhibition of growth at 100 µM (PANC-1 [28]): > 50%; IC50 [29]: < 10 µM; inhibition of growth at 100 µM (MDA-MB-231 [30]): > 50%; inhibition [31]: > 50%
COc1cc2ncnc(Nc3cc(-c4ccc(F)cc4)[nH]n3)c2cc1OC | > 100 | > 100 | > 100 | > 50 | > 50 | > 10 | > 50 | > 50 | > 50 | > 50 | > 100 | > 100 | > 50 | > 50 | > 50 | > 50 | > 100 | > 50 | > 50 | > 10 | IC50 (ZR-75-1 [18]): > 100 µM; inhibition [19]: > 50%; inhibition of growth at 100 µM (ZR-75-30 [20]): > 50%; inhibition of growth at 100 µM (A549 [21]): > 50%; IC50 (HEK293): > 100 µM; IC50 (ZR-75-30 [22]): > 100 µM; inhibition [23]: > 50%; IC50 (PANC-1 [24]): 69.4 µM; IC50 (CDK2/Cyclin A2): > 10 µM; IC50 [25]: > 10 µM; inhibition of growth at 100 µM (BT-20 [26]): > 50%; IC50 (MDA-MB-231 [27]): > 100 µM; inhibition of growth at 100 µM (PANC-1 [28]): > 50%; IC50 [29]: 1.4 µM; inhibition of growth at 100 µM (MDA-MB-231 [30]): > 50%; inhibition [31]: > 50%
